Reference: the NIST ThermoML archive (doi:10.1016/j.tca.2019.178383)
± gives the expanded uncertainty stated by the source.

How the values were obtained:
[1] = for surface tension liquid-gas: Maximal bubble pressure; for mass density: 100 kPa, Liquid, Vibrating tube method
[2] = xn = mol fraction of the nth substance listed; conditions: x2 = 0; for surface tension liquid-gas: Maximal bubble pressure; for mass density: 100 kPa, Liquid, Vibrating tube method

CCn1cc[n+](CCOC)c1.O=S(=O)([O-])C(F)(F)F
[1]
Conditions	mass density [kg/m3]	surface tension liquid-gas [mN/m]
288.15 K	1348.94 ± 1.4	36.3 ± 1.5
293.15 K	1344.66 ± 1.4	36.1 ± 1.5
298.15 K	1340.41 ± 1.4	35.8 ± 1.5
303.15 K	1336.17 ± 1.4	35.5 ± 1.5
308.15 K	1331.96 ± 1.4	35.3 ± 1.5
313.15 K	1327.77 ± 1.4	35.1 ± 1.5
318.15 K	1323.6 ± 1.4	34.9 ± 1.5

CC(C)O [propan-2-ol]
[1]
Conditions	mass density [kg/m3]	surface tension liquid-gas [mN/m]
288.15 K	789.224 ± 1.3	20.6 ± 1.5
293.15 K	785.088 ± 1.3	20.2 ± 1.5
298.15 K	780.887 ± 1.3	19.8 ± 1.5
303.15 K	776.617 ± 1.3	19.5 ± 1.5
308.15 K	772.266 ± 1.3	19.1 ± 1.5
313.15 K	767.829 ± 1.3	18.7 ± 1.5
318.15 K	763.293 ± 1.3	18.4 ± 1.5

CC(C)O [propan-2-ol] + CCn1cc[n+](CCOC)c1.O=S(=O)([O-])C(F)(F)F
[2]
Conditions	mass density [kg/m3]	surface tension liquid-gas [mN/m]
288.15 K	789.224 ± 1.3	20.6 ± 1.5
293.15 K	785.088 ± 1.3	20.2 ± 1.5
298.15 K	780.887 ± 1.3	19.8 ± 1.5
303.15 K	776.617 ± 1.3	19.5 ± 1.5
308.15 K	772.266 ± 1.3	19.1 ± 1.5
313.15 K	767.829 ± 1.3	18.7 ± 1.5
318.15 K	763.293 ± 1.3	18.4 ± 1.5

CCO [ethanol]
[1]
Conditions	mass density [kg/m3]	surface tension liquid-gas [mN/m]
288.15 K	794.308 ± 1.3	21.9 ± 1.5
293.15 K	790.041 ± 1.3	21.4 ± 1.5
298.15 K	785.746 ± 1.3	20.9 ± 1.5
303.15 K	781.43 ± 1.3	20.5 ± 1.5
308.15 K	777.078 ± 1.3	20 ± 1.5
313.15 K	772.688 ± 1.3	19.5 ± 1.5
318.15 K	768.257 ± 1.3	19 ± 1.5

CCCO [propan-1-ol]
[1]
Conditions	mass density [kg/m3]	surface tension liquid-gas [mN/m]
288.15 K	807.507 ± 1.3	22.9 ± 1.5
293.15 K	803.519 ± 1.3	22.5 ± 1.5
298.15 K	799.514 ± 1.3	22.1 ± 1.5
303.15 K	795.48 ± 1.3	21.8 ± 1.5
308.15 K	791.416 ± 1.3	21.4 ± 1.5
313.15 K	787.306 ± 1.3	21 ± 1.5
318.15 K	783.149 ± 1.3	20.6 ± 1.5

CCCO [propan-1-ol] + CCn1cc[n+](CCOC)c1.O=S(=O)([O-])C(F)(F)F
[2]
Conditions	mass density [kg/m3]	surface tension liquid-gas [mN/m]
288.15 K	807.507 ± 1.3	22.9 ± 1.5
293.15 K	803.519 ± 1.3	22.5 ± 1.5
298.15 K	799.514 ± 1.3	22.1 ± 1.5
303.15 K	795.48 ± 1.3	21.8 ± 1.5
308.15 K	791.416 ± 1.3	21.4 ± 1.5
313.15 K	787.306 ± 1.3	21 ± 1.5
318.15 K	783.149 ± 1.3	20.6 ± 1.5

CCO [ethanol] + CCn1cc[n+](CCOC)c1.O=S(=O)([O-])C(F)(F)F
[2]
Conditions	mass density [kg/m3]	surface tension liquid-gas [mN/m]
288.15 K	794.308 ± 1.3	21.9 ± 1.5
293.15 K	790.041 ± 1.3	21.4 ± 1.5
298.15 K	785.746 ± 1.3	20.9 ± 1.5
303.15 K	781.43 ± 1.3	20.5 ± 1.5
308.15 K	777.078 ± 1.3	20 ± 1.5
313.15 K	772.688 ± 1.3	19.5 ± 1.5
318.15 K	768.257 ± 1.3	19 ± 1.5
